Where a SMILES comes first, the peptide text is derived from it. Bridges are numbered along the chain shown (N, C = ends). [ ]: non-standard residue; d: D form. The star is where a group is joined. hPhe(3,5-F2-4-CF3) = N[C@@H](CCc1cc(F)c(C(F)(F)F)c(F)c1)C(=O)O; hPhe(3-Cl-4-CF3) = N[C@@H](CCc1ccc(C(F)(F)F)c(Cl)c1)C(=O)O; NPrPhe(4-CF3) = CCCN[C@@H](Cc1ccc(C(F)(F)F)cc1)C(=O)O; NPrPhe(4-Me) = CCCN[C@@H](Cc1ccc(C)cc1)C(=O)O; NMeGly(cPent) = CN[C@H](C(=O)O)C1CCCC1; NMeD = CN[C@@H](CC(=O)O)C(=O)O; NMeL = CN[C@@H](CC(C)C)C(=O)O; NMeNva = CCC[C@H](NC)C(=O)O; Iva = CC[C@](C)(N)C(=O)O; Morpholide = C1CN(*)CCO1; Ac5c = NC1(C(=O)O)CCCC1; Ac4c = NC1(C(=O)O)CCC1; NEtG = CCNCC(=O)O; Sar = CNCC(=O)O
Key:
HRAS wild-type protein = HRAS wild-type protein (Homo sapiens, UniProt P01112); test: Binding to HRAS by surface plasmon resonance (SPR), KD and KD ratio to KRAS
Summary of the method: (§1)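 GDP-bound biotin-Avi RAS captured at ~100–300 RU, 30°C, pH 7.4 HBS containing 10 µM GDP, 10 mM MgCl2, 1 mM DTT, 0.01% Tween 20 and 4% DMSO. KD by 1:1 fitting.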

[1] = molecular target: GDP-bound NRAS wild-type protein (Homo sapiens, UniProt P01111); test: Binding to NRAS by surface plasmon resonance (SPR), KD and KD ratio to KRAS
Summary of the method: as §1

[2] = system: human lung cancer strain NCI-H441; format: cell-based
Summary of the method: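 Readout: […] after the ATP-based reagent. Compound: serial dilutions in dimethyl sulfoxide.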

[3] = ratio of the KD value with respect to HRAS wild-type protein to the KD value with respect to KRAS
[4] = ratio of the KD value with respect to GDP-bound NRAS wild-type protein to the KD value with respect to KRAS
[5] = ratio of KD for HRAS wild-type protein to KD for KRAS
[6] = ratio of KD for GDP-bound NRAS wild-type protein to KD for KRAS
[7] = ratio of KD value for HRAS wild-type protein to KD value for KRAS (SPR)
[8] = ratio of KD value for GDP-bound NRAS wild-type protein to KD value for KRAS (SPR)
[9] = ratio of KD with respect to HRAS wild-type protein to KD with respect to KRAS
[10] = ratio of KD with respect to GDP-bound NRAS wild-type protein to KD with respect to KRAS

HRAS wild-type protein, sequence (P01112 whole entry): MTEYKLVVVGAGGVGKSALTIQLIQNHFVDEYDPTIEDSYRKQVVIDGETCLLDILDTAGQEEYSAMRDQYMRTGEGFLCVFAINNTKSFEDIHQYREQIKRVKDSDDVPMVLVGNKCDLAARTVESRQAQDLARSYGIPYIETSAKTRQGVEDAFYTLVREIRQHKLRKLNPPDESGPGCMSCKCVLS
GDP-bound NRAS wild-type protein, sequence (P01111 whole entry): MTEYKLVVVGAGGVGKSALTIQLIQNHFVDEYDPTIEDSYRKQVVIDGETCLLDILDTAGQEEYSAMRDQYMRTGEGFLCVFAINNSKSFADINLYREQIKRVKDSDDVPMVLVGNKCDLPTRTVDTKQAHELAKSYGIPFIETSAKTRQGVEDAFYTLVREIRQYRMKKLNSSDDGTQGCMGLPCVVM

IC50 [2] [nM] | SMILES | HRAS /KRAS (HRAS wild-type protein; [5]) | NRAS /KRAS [1, 6] | other results
26.7 | CCO[C@@H]1C[C@H]2C(=O)NC3(CC(C)(C)C3)C(=O)N(C)[C@@H](C(CC)CC)C(=O)N(C)[C@H](C(=O)N(C)C)CC(=O)N(C)[C@@H](CC)C(=O)N[C@@H]([C@@H](C)CC)C(=O)N(C)CC(=O)N(C)[C@H]3C/C=C\CCN(C3=O)[C@@H](Cc3ccc(C)cc3)C(=O)N(C)CC(=O)N[C@@H](CCc3ccc(Cl)c(Cl)c3)C(=O)N2C1 [PP2188] |  |  | HRAS /KRAS (HRAS wild-type protein; [3]): A (a compound having 10 or more and less than 20 is denoted as A); NRAS /KRAS [1, 4]: AA (a compound having 20 or more is denoted as AA)
7.4 | CCCO[C@@H]1C[C@H]2C(=O)NC3(CC(C)(C)C3)C(=O)N(C)[C@@H](C3CCCC3)C(=O)N(C)[C@H](C(=O)N(C)C)CC(=O)N(C)[C@H]3CCCCc4ccc(cc4)C[C@@H](C(=O)N(C)CC(=O)N[C@@H](CCc4ccc(Cl)c(Cl)c4)C(=O)N2C1)N1CC/C=C\C[C@@H](C1=O)N(C)C(=O)CN(C)C(=O)[C@H]([C@@H](C)CC)NC3=O [PP3092] | A (a compound having 10 or more and less than 20 is denoted as A) | A (a compound having 10 or more and less than 20 is denoted as A) | 
2.5 | CCC[C@H]1C(=O)N[C@@H]([C@@H](C)CC)C(=O)N(C)CC(=O)N(C)[C@H]2C/C=C\CCN(C2=O)[C@@H](Cc2ccc(C(F)(F)F)cc2)C(=O)N(C)CC(=O)N[C@@H](CCc2cc(F)c(C(F)(F)F)c(F)c2)C(=O)N2C[C@@H](C)C[C@H]2C(=O)NC2(CC(C)(C)C2)C(=O)N(C)[C@@H](C2CCCC2)C(=O)N(C)[C@H](C(=O)N(C)C)CC(=O)N1C [PP1683] |  |  | HRAS /KRAS (HRAS wild-type protein; [7]): A (a compound having 10 or more and less than 20 is denoted as A); NRAS /KRAS [1, 8]: A (a compound having 10 or more and less than 20 is denoted as A)
15.3 | CCCN(C)C(=O)[C@@H]1CC(=O)N(C)[C@@H](CC(C)C)C(=O)N[C@@H]([C@@H](C)CC)C(=O)N(C)CC(=O)N(C)[C@H]2C/C=C\CCN(C2=O)[C@@H](Cc2ccc(C(F)(F)F)cc2)C(=O)N(C)CC(=O)N[C@@H](CCc2cc(F)c(C(F)(F)F)c(F)c2)C(=O)N2C[C@H](OCC)C[C@H]2C(=O)NC2(CCC2)C(=O)N(C)[C@@H](C2CCCC2)C(=O)N1C [PP1387] |  |  | HRAS /KRAS (HRAS wild-type protein; [9]): B (a compound having 3 or more and less than 10 is denoted as B); NRAS /KRAS [1, 10]: A (a compound having 10 or more and less than 20 is denoted as A)
4.3 | CCCN1C(=O)CN(CC)C(=O)CN(C)C(=O)[C@H]([C@@H](C)CC)NC(=O)[C@H](CC(C)C)N(C)C(=O)C[C@@H](C(=O)N2CCOCC2)N(C)C(=O)[C@H](C2CCCC2)N(C)C(=O)C2(CCCC2)NC(=O)[C@@H]2CCCN2C(=O)[C@H](CCc2ccc(C(F)(F)F)c(Cl)c2)NC(=O)CN(C)C(=O)[C@@H]1Cc1ccc(C)cc1 [PP0065] ([NMeL]I[Sar][NEtG][NPrPhe(4-Me)][Sar][hPhe(3-Cl-4-CF3)]P[Ac5c][NMeGly(cPent)][NMeD]-Morpholide; lactam N-11) | C (A compound having a KD ratio of 0.1 or more and less than 3 is denoted as C) | C (A compound having a KD ratio of 0.1 or more and less than 3 is denoted as C) | 
18.3 | CC[C@H](C)[C@@H]1NC(=O)[C@H](CC2CCC2)N(C)C(=O)C[C@@H](C(=O)N(C)C)N(C)C(=O)[C@H](C2CCCC2)N(C)C(=O)C2(CC(C)(C)C2)NC(=O)[C@@H]2CCCN2C(=O)[C@H](CCc2cc(F)c(C(F)(F)F)c(F)c2)NC(=O)CN(C)C(=O)[C@H](Cc2ccc(C(F)(F)F)cc2)N2CC/C=C\C[C@@H](C2=O)N(C)C(=O)CN(C)C1=O [PP1728] |  |  | HRAS /KRAS (HRAS wild-type protein; [7]): A (a compound having 10 or more and less than 20 is denoted as A); NRAS /KRAS [1, 8]: A (a compound having 10 or more and less than 20 is denoted as A)
92.3 | CCCN1C(=O)CN(C)C(=O)CN(C)C(=O)[C@H]([C@@H](C)CC)NC(=O)[C@H](CC(C)C)N(C)C(=O)C[C@@H](C(=O)N2CCOCC2)NC(=O)[C@H](C2CCCC2)N(C)C(=O)C2(CCC2)NC(=O)[C@@H]2CCCN2C(=O)[C@H](CCc2ccc(C(F)(F)F)c(Cl)c2)NC(=O)CN(C)C(=O)[C@@H]1Cc1ccc(C(F)(F)F)cc1 [PP0320] ([NMeL]I[Sar][Sar][NPrPhe(4-CF3)][Sar][hPhe(3-Cl-4-CF3)]P[Ac4c][NMeGly(cPent)]D-Morpholide; lactam N-11) | B (a compound having 3 or more and less than 10 is denoted as B) | B (a compound having 3 or more and less than 10 is denoted as B) | 
16.7 | CCO[C@@H]1C[C@H]2C(=O)NC3(CCC3)C(=O)N(C)[C@@H](C3CCCC3)C(=O)N(C)[C@H](C(=O)N3CCOCC3)CC(=O)N(C)[C@@H](CC(C)C)C(=O)N[C@@H](C3CC(F)(F)C3)C(=O)N(C)CC(=O)N(C)[C@H]3CCCCN(C3=O)[C@@H](Cc3ccc(C(F)(F)F)cc3)C(=O)N(C)CC(=O)N[C@@H](CCc3cc(F)c(C(F)(F)F)c(F)c3)C(=O)N2C1 [PP0807] | B (a compound having 3 or more and less than 10 is denoted as B) | B (a compound having 3 or more and less than 10 is denoted as B) | 
14.7 | CCC[C@H]1C(=O)N[C@@H]([C@@H](C)CC)C(=O)N(C)CC(=O)N(C)[C@H]2C/C=C\CCN(C2=O)[C@@H](Cc2ccc(C)cc2)C(=O)N(C)CC(=O)N[C@@H](CCc2ccc(C(F)(F)F)c(Cl)c2)C(=O)N2C[C@H](OCC)C[C@H]2C(=O)NC2(CC(C)(C)C2)C(=O)N(C)[C@@H](CC(F)(F)F)C(=O)N(C)[C@H](C(=O)N(C)C)CC(=O)N1C [PP2226] |  |  | HRAS /KRAS (HRAS wild-type protein; [3]): A (a compound having 10 or more and less than 20 is denoted as A); NRAS /KRAS [1, 4]: A (a compound having 10 or more and less than 20 is denoted as A)
40.4 | CCCN1C(=O)CN(C)C(=O)CN(C)C(=O)[C@H]([C@@H](C)CC)NC(=O)[C@H](CC(C)C)N(C)C(=O)C[C@@H](C(=O)N2CCOCC2)N(C)C(=O)[C@H](C2CCCC2)N(C)C(=O)[C@](C)(CC)NC(=O)[C@@H]2CCCN2C(=O)[C@H](CCc2cc(F)c(C(F)(F)F)c(F)c2)NC(=O)CN(C)C(=O)[C@@H]1Cc1ccc(C(F)(F)F)cc1 [PP0754] ([NMeL]I[Sar][Sar][NPrPhe(4-CF3)][Sar][hPhe(3,5-F2-4-CF3)]P[Iva][NMeGly(cPent)][NMeD]-Morpholide; lactam N-11) |  |  | HRAS /KRAS (HRAS wild-type protein; [3]): C (A compound having a KD ratio of 0.1 or more and less than 3 is denoted as C); NRAS /KRAS [1, 4]: B (a compound having 3 or more and less than 10 is denoted as B)
7.1 | CCO[C@@H]1C[C@H]2C(=O)NC3(CCC3)C(=O)N(C)[C@@H](C3CCCC3)C(=O)N(C)[C@H](C(=O)N(C)C)CC(=O)N(C)[C@@H](CC)C(=O)N[C@@H]([C@@H](C)CC)C(=O)N(C)CC(=O)N(C)[C@H]3CCCCN(C3=O)[C@@H](Cc3ccc(C(F)(F)F)cc3)C(=O)N(C)CC(=O)N[C@@H](CCc3ccc(C(F)(F)F)c(C)c3)C(=O)N2C1 [PP0882] | B (a compound having 3 or more and less than 10 is denoted as B) | C (A compound having a KD ratio of 0.1 or more and less than 3 is denoted as C) | 
3 | CCC[C@H]1C(=O)N[C@@H]([C@@H](C)CC)C(=O)N(C)CC(=O)N(C)CC(=O)N(CCC)[C@@H](Cc2ccc(C(F)(F)F)cc2)C(=O)N(C)CC(=O)N[C@@H](CCc2ccc(C(F)(F)F)c(Cl)c2)C(=O)N2CCC[C@H]2C(=O)NC2(CCCC2)C(=O)N(C)[C@@H](C2CCCC2)C(=O)N(C)[C@H](C(=O)N2CCOCC2)CC(=O)N1C [PP0189] ([NMeNva]I[Sar][Sar][NPrPhe(4-CF3)][Sar][hPhe(3-Cl-4-CF3)]P[Ac5c][NMeGly(cPent)][NMeD]-Morpholide; lactam N-11) | C (A compound having a KD ratio of 0.1 or more and less than 3 is denoted as C) | B (a compound having 3 or more and less than 10 is denoted as B) | 
56.2 | CCO[C@@H]1C[C@H]2C(=O)NC3(CCC3)C(=O)N(C)[C@@H](C3CCCC3)C(=O)N(C)[C@H](C(=O)N(C)CCOC)CC(=O)N(C)[C@@H](CC)C(=O)N[C@@H]([C@@H](C)CC)C(=O)N(C)CC(=O)N(C)[C@H]3C/C=C\CCN(C3=O)[C@@H](Cc3ccc(C(F)(F)F)cc3)C(=O)N(C)CC(=O)N[C@@H](CCc3ccc4sccc4c3)C(=O)N2C1 [PP1322] |  |  | HRAS /KRAS (HRAS wild-type protein; [9]): A (a compound having 10 or more and less than 20 is denoted as A); NRAS /KRAS [1, 10]: A (a compound having 10 or more and less than 20 is denoted as A)
39.2 | CCCO[C@@H]1CCN2C(=O)[C@H](CCc3cc(F)c(C(F)(F)F)c(F)c3)NC(=O)CN(C)C(=O)[C@H](Cc3ccc(C(F)(F)F)cc3)N3CCCC[C@@H](C3=O)N(C)C(=O)CN(C)C(=O)[C@H]([C@@H](C)CC)NC(=O)[C@H](CC(C)C)N(C)C(=O)C[C@@H](C(=O)N3CCOCC3)N(C)C(=O)[C@H](C3CCCC3)N(C)C(=O)C3(CCC3)NC(=O)[C@H]12 [PP1080] | B (a compound having 3 or more and less than 10 is denoted as B) | B (a compound having 3 or more and less than 10 is denoted as B) | 
330 | CC[C@H](C)[C@@H]1NC(=O)[C@H](CC(C)C)N(C)C(=O)C[C@@H](C(=O)N(C)C)N(C)C(=O)[C@H](C2CCCC2)N(C)C(=O)C2(CCCC2)NC(=O)[C@@H]2CCCN2C(=O)[C@H](CCc2ccc(C(F)(F)F)c(Cl)c2)NC(=O)CN(C)C(=O)[C@H](Cc2ccc(C(F)(F)F)cc2)N2CC/C=C\COC[C@@H](C2=O)N(C)C(=O)CN(C)C1=O [PP0622] |  |  | HRAS /KRAS (HRAS wild-type protein; [3]): B (a compound having 3 or more and less than 10 is denoted as B); NRAS /KRAS [1, 4]: B (a compound having 3 or more and less than 10 is denoted as B)

Source: patent publication EP4603105A1, “PHARMACEUTICAL COMPOSITION CONTAINING CYCLIC COMPOUND HAVING SELECTIVE KRAS INHIBITORY EFFECT AGAINST HRAS AND NRAS” (CHUGAI SEIYAKU KABUSHIKI KAISHA, priority 2022, dated 2024)
